Measured values as given in PubChem BioAssay (NCI).
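Abbreviation: GI50, concentration required for 50% inhibition of growth. TGI is the concentration that stops growth completely.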

What was measured:
Assay in all cases: NCI-60 cell line screen, 384-well format
SF-295 CNS = tested on: SF-295 CNS
UACC-257 melanoma = tested on: UACC-257 melanoma
CCRF-CEM leukemia = tested on: CCRF-CEM leukemia
NCI-H522 lung = tested on: NCI-H522 lung
M14 melanoma = tested on: M14 melanoma
OVCAR-8 ovarian = tested on: OVCAR-8 ovarian
A549 NSCLC = tested on: A549 NSCLC
A498 renal = tested on: A498 renal
OVCAR-3 ovarian = tested on: OVCAR-3 ovarian
SR leukemia = tested on: SR leukemia
SN12C renal = tested on: SN12C renal
SK-OV-3 ovarian = tested on: SK-OV-3 ovarian
HL-60(TB) leukemia = tested on: HL-60(TB) leukemia
BT-549 breast = tested on: BT-549 breast
OVCAR-5 ovarian = tested on: OVCAR-5 ovarian
PC-3 prostate = tested on: PC-3 prostate
NCI-H322M lung = tested on: NCI-H322M lung
SK-MEL-5 melanoma = tested on: SK-MEL-5 melanoma
SF-268 CNS = tested on: SF-268 CNS
RXF 393 renal = tested on: RXF 393 renal
HS 578T breast = tested on: HS 578T breast
MDA-MB-468 breast = tested on: MDA-MB-468 breast
K-562 leukemia = tested on: K-562 leukemia
MDA-MB-231 breast = tested on: MDA-MB-231 breast
OVCAR-4 ovarian = tested on: OVCAR-4 ovarian
SNB-75 CNS = tested on: SNB-75 CNS
COLO 205 colon = tested on: COLO 205 colon
HOP-92 NSCLC = tested on: HOP-92 NSCLC
HCT-116 colon = tested on: HCT-116 colon
HCT-15 colon = tested on: HCT-15 colon
MDA-MB-435 melanoma = tested on: MDA-MB-435 melanoma
NCI-H460 NSCLC = tested on: NCI-H460 NSCLC
U251 glioblastoma = tested on: U251 glioblastoma
TK-10 renal = tested on: TK-10 renal
HCC-2998 colon = tested on: HCC-2998 colon
MALME-3M melanoma = tested on: MALME-3M melanoma
ACHN renal = tested on: ACHN renal
HOP-62 NSCLC = tested on: HOP-62 NSCLC
DU-145 prostate = tested on: DU-145 prostate
IGROV1 ovarian = tested on: IGROV1 ovarian
NCI-H23 lung = tested on: NCI-H23 lung
NCI-H226 lung = tested on: NCI-H226 lung
RPMI-8226 leukemia = tested on: RPMI-8226 leukemia
KM12 colon = tested on: KM12 colon
EKVX NSCLC = tested on: EKVX NSCLC
786-0 renal = tested on: 786-0 renal
CAKI-1 renal = tested on: CAKI-1 renal
MOLT-4 leukemia = tested on: MOLT-4 leukemia
SF-539 CNS = tested on: SF-539 CNS
LOX IMVI melanoma = tested on: LOX IMVI melanoma
UO-31 renal = tested on: UO-31 renal
SNB-19 CNS = tested on: SNB-19 CNS
T-47D breast = tested on: T-47D breast
HT29 colon = tested on: HT29 colon
SK-MEL-28 melanoma = tested on: SK-MEL-28 melanoma
SW-620 colon = tested on: SW-620 colon
MCF7 breast = tested on: MCF7 breast
NCI/ADR-RES ovarian = tested on: NCI/ADR-RES ovarian

## O=C(Nc1cccc2cccnc12)c1ccc(N2C(=O)[C@@H]3[C@H](C2=O)[C@@H]2C=C[C@H]3C2)cc1
SF-295 CNS
  GI50: 17.7 µM
  TGI: 57.4 µM
UACC-257 melanoma
  GI50: 36.2 µM
  TGI: > 100 µM
CCRF-CEM leukemia
  GI50: 16.8 µM
  TGI: 42.3 µM
NCI-H522 lung
  GI50: 16.4 µM
  TGI: 32.8 µM
M14 melanoma
  GI50: 43.5 µM
  TGI: > 100 µM
OVCAR-8 ovarian
  GI50: 27.8 µM
  TGI: 94.6 µM
A549 NSCLC
  GI50: 32.2 µM
  TGI: > 100 µM
A498 renal
  GI50: 25.9 µM
  TGI: > 100 µM
OVCAR-3 ovarian
  GI50: 25.3 µM
  TGI: > 100 µM
SR leukemia
  GI50: 13.5 µM
  TGI: 32.9 µM
SN12C renal
  GI50: 47.8 µM
  TGI: > 100 µM
SK-OV-3 ovarian
  GI50: 57.2 µM
  TGI: > 100 µM
HL-60(TB) leukemia
  GI50: 12.3 µM
  TGI: 24.9 µM
BT-549 breast
  GI50: 12.6 µM
  TGI: 30.5 µM
OVCAR-5 ovarian
  GI50: 56.8 µM
  TGI: > 100 µM
PC-3 prostate
  GI50: 26 µM
  TGI: 70.4 µM
NCI-H322M lung
  GI50: 42 µM
  TGI: > 100 µM
SK-MEL-5 melanoma
  GI50: 18.1 µM
  TGI: 32.7 µM
SF-268 CNS
  GI50: 41.2 µM
  TGI: > 100 µM
RXF 393 renal
  GI50: 0.907 µM
  TGI: 24.6 µM
HS 578T breast
  GI50: 29.3 µM
  TGI: 93.7 µM
MDA-MB-468 breast
  GI50: 3.84 µM
  TGI: 23.6 µM
K-562 leukemia
  GI50: 11.6 µM
  TGI: 25.9 µM
MDA-MB-231 breast
  GI50: 36.3 µM
  TGI: > 100 µM
OVCAR-4 ovarian
  GI50: 21.6 µM
  TGI: > 100 µM
SNB-75 CNS
  GI50: 30 µM
  TGI: 98.5 µM
COLO 205 colon
  GI50: 37.6 µM
  TGI: > 100 µM
HOP-92 NSCLC
  GI50: 43.7 µM
  TGI: > 100 µM
HCT-116 colon
  GI50: 38.3 µM
  TGI: > 100 µM
HCT-15 colon
  GI50: 26.1 µM
  TGI: 98.2 µM
MDA-MB-435 melanoma
  GI50: 46.3 µM
  TGI: > 100 µM
NCI-H460 NSCLC
  GI50: 20.5 µM
  TGI: 43.5 µM
U251 glioblastoma
  GI50: 19.4 µM
  TGI: > 100 µM
TK-10 renal
  GI50: 28.7 µM
  TGI: > 100 µM
HCC-2998 colon
  GI50: 20.1 µM
  TGI: 41.6 µM
MALME-3M melanoma
  GI50: 27.3 µM
  TGI: 88 µM
ACHN renal
  GI50: 45.1 µM
  TGI: > 100 µM
HOP-62 NSCLC
  GI50: 21.7 µM
  TGI: 74.7 µM
DU-145 prostate
  GI50: 26.2 µM
  TGI: > 100 µM
IGROV1 ovarian
  GI50: 32.5 µM
  TGI: > 100 µM
NCI-H23 lung
  GI50: 16.9 µM
  TGI: 42.6 µM
NCI-H226 lung
  GI50: 18 µM
  TGI: 50 µM
RPMI-8226 leukemia
  GI50: 21 µM
  TGI: 36.5 µM
KM12 colon
  GI50: 32.3 µM
  TGI: > 100 µM
EKVX NSCLC
  GI50: 25.5 µM
  TGI: > 100 µM
786-0 renal
  GI50: 21 µM
  TGI: 59.9 µM
CAKI-1 renal
  GI50: 28.4 µM
  TGI: > 100 µM
MOLT-4 leukemia
  GI50: 16 µM
  TGI: 29.8 µM
SF-539 CNS
  GI50: 49.1 µM
  TGI: > 100 µM
LOX IMVI melanoma
  GI50: 32.5 µM
  TGI: 89.6 µM
UO-31 renal
  GI50: 20.1 µM
  TGI: > 100 µM
SNB-19 CNS
  GI50: 27.2 µM
  TGI: > 100 µM
T-47D breast
  GI50: 13 µM
  TGI: 27.1 µM
HT29 colon
  GI50: 14.4 µM
  TGI: 29.8 µM
SK-MEL-28 melanoma
  GI50: 54.5 µM
  TGI: > 100 µM
SW-620 colon
  GI50: 44.9 µM
  TGI: > 100 µM
MCF7 breast
  GI50: 22.9 µM
  TGI: > 100 µM
NCI/ADR-RES ovarian
  GI50: 12 µM
  TGI: 26.7 µM

## CS(=O)c1ccc(-c2nc(-c3ccc(F)cc3)c(-c3ccncc3)[nH]2)cc1 (stereo not given)
SF-295 CNS
  GI50: 20.1 µM
  TGI: 35.1 µM
UACC-257 melanoma
  GI50: 15.3 µM
  TGI: 30 µM
CCRF-CEM leukemia
  GI50: 17.7 µM
  TGI: 42.8 µM
NCI-H522 lung
  GI50: 14.8 µM
  TGI: 35.2 µM
M14 melanoma
  GI50: 6.96 µM
  TGI: 29.4 µM
OVCAR-8 ovarian
  GI50: 24 µM
  TGI: 90.4 µM
A549 NSCLC
  GI50: 38.9 µM
  TGI: > 100 µM
A498 renal
  GI50: 16.7 µM
  TGI: 55.2 µM
OVCAR-3 ovarian
  GI50: 29.3 µM
  TGI: 68.8 µM
SR leukemia
  GI50: 13.1 µM
  TGI: 26.4 µM
SN12C renal
  GI50: 48.5 µM
  TGI: > 100 µM
SK-OV-3 ovarian
  GI50: 22.7 µM
  TGI: 58.2 µM
HL-60(TB) leukemia
  GI50: 16.4 µM
  TGI: 30.3 µM
BT-549 breast
  GI50: 41.7 µM
  TGI: > 100 µM
OVCAR-5 ovarian
  GI50: 40.4 µM
  TGI: > 100 µM
PC-3 prostate
  GI50: 40.3 µM
  TGI: > 100 µM
NCI-H322M lung
  GI50: 37.5 µM
  TGI: 96.2 µM
SK-MEL-5 melanoma
  GI50: 14.7 µM
  TGI: 28.4 µM
SF-268 CNS
  GI50: 43.4 µM
  TGI: > 100 µM
RXF 393 renal
  GI50: 17.8 µM
  TGI: 33.5 µM
HS 578T breast
  GI50: 20.7 µM
  TGI: 39 µM
MDA-MB-468 breast
  GI50: 10.5 µM
  TGI: 29.2 µM
K-562 leukemia
  GI50: 27.8 µM
  TGI: > 100 µM
MDA-MB-231 breast
  GI50: 35.6 µM
  TGI: > 100 µM
OVCAR-4 ovarian
  GI50: 38.2 µM
  TGI: 93.8 µM
SNB-75 CNS
  GI50: 44.2 µM
  TGI: > 100 µM
COLO 205 colon
  GI50: 11.8 µM
  TGI: 24.5 µM
HOP-92 NSCLC
  GI50: 34.8 µM
  TGI: > 100 µM
HCT-116 colon
  GI50: 23.3 µM
  TGI: 50.9 µM
HCT-15 colon
  GI50: 18.4 µM
  TGI: 37.1 µM
MDA-MB-435 melanoma
  GI50: 33.2 µM
  TGI: > 100 µM
NCI-H460 NSCLC
  GI50: 27.8 µM
  TGI: 64.1 µM
U251 glioblastoma
  GI50: 27.8 µM
  TGI: 62.4 µM
TK-10 renal
  GI50: 16.8 µM
  TGI: 37.4 µM
HCC-2998 colon
  GI50: 23.2 µM
  TGI: 38.7 µM
MALME-3M melanoma
  GI50: 11.9 µM
  TGI: 28.1 µM
ACHN renal
  GI50: 19 µM
  TGI: 65.1 µM
HOP-62 NSCLC
  GI50: 23 µM
  TGI: 50.1 µM
DU-145 prostate
  GI50: 30.4 µM
  TGI: 93.2 µM
IGROV1 ovarian
  GI50: 13.9 µM
  TGI: 28.9 µM
NCI-H23 lung
  GI50: 26.7 µM
  TGI: 52.6 µM
NCI-H226 lung
  GI50: 19.9 µM
  TGI: 34.4 µM
RPMI-8226 leukemia
  GI50: 23.6 µM
  TGI: 40.3 µM
KM12 colon
  GI50: 27.4 µM
  TGI: 62.3 µM
EKVX NSCLC
  GI50: 32.6 µM
  TGI: > 100 µM
786-0 renal
  GI50: 17.8 µM
  TGI: 36.5 µM
CAKI-1 renal
  GI50: 22.2 µM
  TGI: 88.4 µM
MOLT-4 leukemia
  GI50: 25.1 µM
  TGI: 62.2 µM
SF-539 CNS
  GI50: 29.5 µM
  TGI: 71.6 µM
UO-31 renal
  GI50: 21.4 µM
  TGI: 69.9 µM
SNB-19 CNS
  GI50: 56.8 µM
  TGI: > 100 µM
T-47D breast
  GI50: 27.4 µM
  TGI: 83.9 µM
HT29 colon
  GI50: 11.1 µM
  TGI: 24 µM
SK-MEL-28 melanoma
  GI50: 12.1 µM
  TGI: 25.6 µM
SW-620 colon
  GI50: 31.5 µM
  TGI: 49.2 µM
MCF7 breast
  GI50: 26.8 µM
  TGI: 90.7 µM
NCI/ADR-RES ovarian
  GI50: 98.1 µM
  TGI: > 100 µM
